Reference: US20110098556A1, “Computer-Based Method And System For Imaging-Based Dynamic Function Evaluation Of An Organ” (priority 2008, published 2011)
Values joined by “and” are separate entries in the source; they are usually repeats but may differ in a detail not shown here. Equal values may be shown once.

Key:
[1] = in vivo; cited from earlier work
[2] = tested on: liver; assay: Gd-EOB-DTPA-enhanced DHCE-MRI in patients with primary biliary cirrhosis (PBC); format: in vivo, human
Method: (§1) T1-weighted Gd-EOB-DTPA-enhanced DHCE-MRI was performed on 20 healthy volunteers, 10 men and 10 women, and on patients with an established diagnosis of PBC. Routine serum liver function tests were performed at inclusion in the study on the healthy volunteers, and for the patients it was recorded from the most recent visit documented in their clinical charts. The healthy volunteers had no history of hepato-biliary disease, previous hepato-biliary surgery or alcohol abuse. All subjects were asked to be fasting for at least four hours prior to the examination. For each patient, relevant clinical data was documented and together with the results from the liver function tests they were used to calculate the CPS, Mayo risk score and MELD score.
(§2) T1-weighted Gd-EOB-DTPA-enhanced DHCE-MRI was performed using a Philips Intera 1.5T scanner (Best, Holland), with a Philips four-channel SENSE body coil according to the protocol in Example 1. Deconvolutional analysis was performed using truncated singular value decomposition (TSVD). HEF and irBF were calculated as described above. […] The Mann-Whitney U-test was used for test of significance and the significance level was set to […]. All segments in every patient and controls yielded an observation and in the statistical analysis, all observations were regarded as independent observations, even if they originated from one individual. Thus, the study yielded 180 observations for each of the abovementioned parameters from the controls, and 108 observations from PBC patients.

[3] = tested on: liver; assay: Gd-EOB-DTPA-enhanced MRI in patients with primary sclerosing cholangitis (PSC); format: in vivo, human; set-up: HEF: unit not given here
Method: as §1, with “MRI” for “DHCE-MRI”, “PSC.” for “PBC.”
as §2, with “MRI” for “DHCE-MRI”, “protocol as outlined” for “protocol”, “PSC” for “PBC”

[4] = tested on: liver; assay: T1-weighted Gd-EOB-DTPA-enhanced DHCE-MRI liver function test, healthy volunteers; format: in vivo, human; set-up: key to median HEF / HEF, mean / HEF, median / HEF, max / HEF: ratio of extrapolated hepatic retention curve to vascular peak of HE curve; conditions: for median HEF: healthy volunteers; for HEF, mean / HEF, max / HEF, median: n=20 healthy volunteers
Method: Deconvoluted liver response curves were analyzed with respect to HEF and RBF. HEF was described by Brown et al using Tc-99-disofenin scintigraphy as a measurement of hepatic extraction efficiency, and could be understood as the percentage of tracer that would have been extracted if the tracer had been injected directly into the afferent blood supply of the liver without subsequent recirculation. […] The HE curve can be divided into the vascular phase and the hepatocyte retention phase, which describes the hepatic extraction. We calculated HEF using a monoexponential fit to the HE-curve data points from 420 to 1800 seconds after the time of injection of the tracer. The starting point at 420 seconds was chosen after visual inspection of the deconvoluted HE curves. The fitted curve, the hepatic retention curve (HRC, a mono-exponentially decaying fitted curve), is then extrapolated back to the time of the vascular peak value, and HEF is defined as the ratio between the extrapolated HRC curve and the vascular peak of the HE curve (also shown in FIG. 3),
RBF, giving a relative measurement of blood flow in the liver, is described as the initial peak value of the HE curve. RBF values were normalized to the segment with the highest RBF, i.e. the segment with the highest RBF was set to 100%.
The input function was defined by a region of interest (ROI) placed in the hilar part of the portal vein. Due to patient motion, the input function ROI was adjusted in each dynamic acquisition so the voxels represent portal vein blood. Liver response function curves were defined by placing three ROIs in each liver segment (I to VIII with segment IV divided into IVa and IVb). The relative enhancement over time of the voxels in the ROI was regarded as the parenchymal response function for that ROI. Data points were interpolated using equidistant spacing (60 s) over the 90-minute time period. […] Care was taken to as far as possible to exclude major blood vessels and visible bile ducts when the ROIs were placed. Segments were defined and nomenclature adhered to as proposed by Strasberg SM. Terminology of liver anatomy and liver resections: coming to grips with hepatic Babel. J Am Coll Surg 1997; 184(4):413-434, which is incorporated herein by reference in its entirety. However, other segmentations may be used in other embodiments.
HEF and RBF were calculated for each ROI both with TSVD and FA+tail using specific in-house software written in MATLAB® (Mathworks, […], USA). Thus, each ROI yielded two values for HEF and RBF respectively. For TSVD, a static truncation threshold was set at c=0.07. A cosine function from 0 to π/2 with the initial height of the last point of x(t) and y(t) was added for the DA performed with FA, and the length of the tail was set to be three times the length of the total sampling period of 90 minutes. […]
To arrive at an estimation of the model parameters, an iterative method was used. After assigning starting values to kij and f the impulse response function h(t) was estimated through Eq 10, and an output function yout(t) was calculated through yout(t)=h(t) ? x(t)+f·x(t), using the input function x(t) from the portal vein as an estimate for the blood pool signal in Equation 7. The response function y(t) on the other hand was measured in a ROI in the liver parenchyma, and the parameters kij and f were determined by iteratively minimizing the squared difference diff=(y(t)−yout(t))^2, see FIG. 17.
For some response curves either T10, or both T5 and T10, were beyond the last measured time point, and no value was set. Tmax, T5 and T10 were measured in seconds.
where g(t) is the fitted curve and the fitting parameters c2 and TU describe contrast uptake, while c1 and TE describe the liver contrast excretion. Both TE and TU were calculated in minutes.
T1-weighted Gd-EOB-DTPA-enhanced DHCE-MRI was performed on 20 healthy volunteers, 10 men and 10 women, ages ranging from 22 to 45 years. […]

[5] = individual PBC patient, median of 9 segmental values
[6] = median for PBC patients (n = 108)
[7] = individual PSC patient, median of 9 segmental values
[8] = median for PSC patients (segments n = 108)
[9] = median for healthy controls (n = 180)

**Q.** What does the source list for `CCOc1ccc(CC(CN(CCN(CC(=O)[O-])CC(=O)[O-])CC(=O)[O-])N(CC(=O)[O-])CC(=O)[O-])cc1.[Gd+3].[Na+].[Na+]` (stereo not drawn) [Gd-EOB-DTPA, Gadolinium ethoxybenzyl diethylenetriaminepentaacetic acid]?
**A.** fraction eliminated by renal excretion (glomerular filtration) [1]: 50%; hepatic clearance [1]: about 50%; T5 (time from Tmax to five percent decay) [2, 5]: 24.33 min and 18.17 min and 40.67 min and 33 min and 24.83 min and 21.67 min and 34 min and 24.67 min and 25.67 min and 13.5 min and 4 min and 15.7 min; T10 (time from Tmax to ten percent decay) [2, 5]: 30.5 min and 28 min and 38 min and 34 min and 50.5 min and 32.5 min and 48 min and 41 min and 41.33 min and 30 min and 15.7 min and 24 min; Tmax (time to maximum intensity) [2, 5]: 48.33 min and 35 min and 36.67 min and 66.67 min and 43.33 min and 60 min and 22.67 min and 40 min and 8 min and 3.33 min and 51.67 min; HEF ([2]; individual PBC patient, median of 9 segmental values, TSVD): 0.163 (2×) and 0.225 and 0.302 and 0.150 and 0.093 and 0.226 and 0.199 and 0.155 and 0.106 and 0.047 and 0.152; TE (excretion half-time) ([2]; individual PBC patient, median of 9 segments, bi-exponential fit): 3780 min and 1591 min and 4791 min and 6961 min and 4241 min and 1180 min and 8011 min and 2130 min and 2481 min and 1141 min and 2830 min and 1281 min; T5 [2, 6]: 1440 s; T10 [2, 6]: 1920 s; TE [2, 6]: 2850 min; Tmax [2, 6]: 41 min; HEF ([2]; median for PBC patients (n = 108 segments)): 0.161; T5 [3, 7]: 1720 s and 980 s and 1620 s and 940 s and 1420 s and 1380 s and 1170 s and 1400 s and 1250 s and 1500 s and 1340 s and 2140 s; T10 [3, 7]: 1980 s and 1560 s and 1950 s and 1720 s and 2645 s and 1840 s and 2340 s and 2600 s and 2050 s and 2490 s and 2460 s and 3540 s; Tmax [3, 7]: 56.67 min and 41.67 min and 46.67 min and 27 min and 31 min and 30 min and 48 min and 21.33 min and 36.67 min and 28 min and 63.33 min; HEF ([3]; individual PSC patient, median of 9 segmental values, TSVD): 0.158 and 0.213 and 0.221 and 0.307 and 0.140 and 0.220 and 0.159 and 0.136 (2×) and 0.123 and 0.174 and 0.240; TE ([3]; individual PSC patient, median of 9 segments, bi-exponential fit): 1427 min and 110 min and 184 min and 102 min and 244 min and 211 min and 251 min and 203 min and 147 min and 128 min and 341 min and 452 min; HEF [3, 8]: 0.176; T5 [3, 8]: 1340 s; T10 [3, 8]: 2050 s; TE [3, 8]: 204 min; Tmax [3, 8]: 37.67 min; signal intensity half-time (TE) ([4]; compared with total scan time): > 90 min; mean HEF ([4]; example 1, healthy volunteers): above 20%; hepatic extraction fraction (HEF) ([4]; example curve of FIG. 3, FA+tail): approximately 17%; median HEF ([4]; left hemiliver, FA+tail): 0.194; median HEF ([4]; left hemiliver, TSVD): 0.196; HEF ([4]; median for 20 healthy controls (n = 180 segments), TSVD): 0.201; T5 [4, 9]: 1600 s; T10 [4, 9]: 2295 s; Tmax [4, 9]: 33.33 min; HEF, mean ([4]; 180 segmental values, deconvolution by TSVD): 0.215; HEF, max ([4]; FA + tail): 0.440; HEF, median ([4]; FA + tail): 0.210; HEF, max ([4]; TSVD): 0.436; HEF, median ([4]; TSVD): 0.208; HEF, mean ([4]; deconvolution by FA + tail): 0.217; median HEF ([4]; right hemiliver, FA+tail): 0.224; median HEF ([4]; right hemiliver, TSVD): 0.218
